Measurements published in patent EP3248604A1, “AGENTS FOR MODULATION OF WNT-TCF SIGNALLING AND USES THEREOF” (UNIVERSITE DE GENEVE, priority 2016, dated 2017).

Columns and labels:
Chemokine/cytokine = test: RT-qPCR gene expression in Ls174T cells, chemokine/cytokine genes; format: cell-based, human; set-up: key: ratio normalized to DMSO control = 1; settings: vs DMSO=1
Method: (§1) RT-qPCR was performed as in Melotti et al. (2014, supra) using BioRad equipment and reagents. Cells cultured in nitro were treated with the desired concentration of drug in DMEM-F12 and reduced serum (2.5% FBS) for 16h, unless otherwise noted, and collected in Trizol (Sigma) before total RNA extraction and cDNA synthesis. Primers were as in Table 1. HPRT (gene encoding Hypoxanthine phosphoribosyltransferase 1) and βACTIN were used as housekeeping controls for normalization.
(§2) Nine components of the three pathways (WNT-TCF, BMP/TGFβ and chemokine/cytokine), and the top 6 repressed epigenetic regulators (ZMYND8, EED, SMARCAL1, TBLIXR1, SETD6 and TAF5L) (Figure 12) were tested for their modulation by dnTCF and their timed response to CAP2 treatment. […] DnTCF also repressed the expression of BMP4, SMAD6, IL8, CXCL3 and CXCL5, but expression of IL33 was enhanced. […] BMP4 and ID2 were also repressed at 2 and 4h but SMAD6 was repressed only at 4h. CXCL3 was already repressed at 2h, IL8 was little affected and IL33 and CXCL5 were enhanced at 2h. At 4 h only CXCL3 was repressed and the other three cytokine/chemokine genes tested (IL8, IL33 and CXCL5) were neither enhanced nor repressed. […] All values are normalized ratios with DMSO-controls, which were equated to 1 Table 14

TCF targets = test: Microarray transcriptome analysis in Ls174T cells; format: cell-based, human; settings: 16h
Method: Cells treated with compounds were collected in Trizol and RNA was harvested using standard protocols. Quality and quantity of RNA was checked using Nano Series (Agilent Technologies). Samples with a RNA Integrity Number (RIN) >9/10 were chosen and cDNA and cRNA samples were prepared using GeneChip IVT Express kit. Genechip hybridization was done using the same kit and applied to PrimeView U219 human array (Affymetrix) in the Genomic Platform at the Faculty of Medicine, University of Geneva.
To test the effects of CAP2 on the transcriptome in a genome-wide manner microarray analyses with Ls174T cells were performed as these have been previously used to determine the genome-wide changes driven by dnTCF activity (van der Flier et al., 2007, Gastroenterology, 132(2): 628-32), the genetic benchmark use here. Ls174T cells were treated with 5 µM CAP2 (batch 3) for 16h, and their transcriptome compared with that of controls treated with DMSO under the same conditions. This dose was chosen since it results in extended WNT-TCF target gene modulation (Table 6).

BMP/TGFβ = test: RT-qPCR gene expression in Ls174T cells, BMP/TGFβ genes; format: cell-based, human; settings: vs DMSO=1
Method: as §1, §2

WNT-TCF targets = test: RT-qPCR gene expression in HT29 cells; format: cell-based, human; settings: 16h, batch 3, vs DMSO=1
Method: as §1
Primary colon cells CC14, CC36 and mCC11, colon cancer cell lines DLD1, HT29, Ls174T, melanoma cell line MeWo, glioblastoma cell lines U87 and U251, and the lung cancer cell line H358 were cultured in DMEM-F12 with 10% FBS under standard in nitro conditions.

Ls174T cells [1] = test: Clonal spheroid assay, Ls174T; format: cell-based, human; settings: Homo sapiens, LS174T, 16 h, read-out: IC50, number of stem cell-derived spheroids
Method: (§3) Cells were treated with different concentrations of compounds for 16h in 2D adherent culture, washed, harvested and plated in suspension with serum-free DMEM-F12 media with B27 supplement (1:50 dilution) at 1 cell/well in 96-well format in triplicates. Plated cells were monitored to ensure the presence of single cells in each well and spheroids counted and photographed after 10 days for each round.
(§4) To directly test for a long-lasting repression of WNT-TCF targets by CAP2 clonogenic properties of cancer stem cells were tested. DLD1 and LS174T cells were first treated with CAP2 in 2D culture in vitro followed by removal of the drug, washing with PBS, and plating under non-adherent 3D conditions for clonal spheroid growth in the absence of the drug. After primary spheroid growth, the spheroids were dissociated and replated as single cells for secondary and subsequent clonogenic spheroid formation, also in the absence of the compound of the invention. As negative control DMSO-treatment was used.

Ls174T cells [2] = settings: FACS, vs DMSO
Method: Cell were plated with different concentrations of compounds in a 96-well format and incubated in standard conditions for 6h and imaged. Active (cleaved) Caspase-3^+ apoptosis was determined using the BD Pharmigen kit and FACS (fluorescence-activated cell sorting).

Epigenetic regulators [3] = test: RT-qPCR of epigenetic regulators in U251 cells; format: cell-based, human; settings: 0.5 µM
Method: as §1
(§5) The WNT-TCF-independent repressive activity of CAP2 on epigenetic regulators may be extrapolated to other cancer cells as it was also detected in HT29 and CC14 human colon cancer cells, in MeWo human melanoma cells as well as in U87 and U251 human glioma cells. In all these different human cancer cells, CAP2 (at 0.5 µM) modulated the expression of ZMYND8, SMARCAL1, TBLIXR1, SETD6 and TAF5Ls (Table 15).

DLD1 cells = test: Clonal spheroid assay, DLD1; format: cell-based, human; settings: Homo sapiens, DLD-1, 16 h, read-out: IC50, number of stem cell-derived spheroids
Method: as §3, §4

Epigenetic regulators [4] = test: RT-qPCR of epigenetic regulators in U87 cells; format: cell-based, human; settings: 0.5 µM
Method: as §1, §5

[5] = Table 9, microarray, Ls174T, 5 µM (batch 3), vs DMSO
[6] = Table 10, Microarray, CAP2 5 µM
[7] = microarray, Ls174T, 5 µM, vs DMSO

Compound: CC1=C(C)C(=O)O[C@@H]([C@](C)(O)[C@]2(O)CC[C@@]3(O)[C@@H]4CC=C5CC=CC(=O)[C@]5(C)[C@H]4CC[C@]23C)C1 [CAP2]
- CXCL3 expression (Chemokine/cytokine; 5µM batch 3, 2h post-treatment): 0.2
- CXCL5 expression (Chemokine/cytokine; 5µM batch 3, 2h post-treatment): 1.3
- IL8 expression (Chemokine/cytokine; 5µM batch 3, 2h post-treatment): 0.7
- IL33 expression (Chemokine/cytokine; 5µM batch 3, 2h post-treatment): 1.4
- CXCL3 expression (Chemokine/cytokine; 5µM batch 3, 4h post-treatment): 0.1
- CXCL5 expression (Chemokine/cytokine; 5µM batch 3, 4h post-treatment): 1.1
- IL8 expression (Chemokine/cytokine; 5µM batch 3, 4h post-treatment): 0.8
- IL33 expression (Chemokine/cytokine; 5µM batch 3, 4h post-treatment): 1.1
- ASCL2 Fold change (TCF targets; [5]): -9
- AXIN2 Fold change (TCF targets; [5]): -4
- CDKN1A Fold change (TCF targets; [5]): 9
- LGR5 Fold change (TCF targets; [5]): -15
- cMYC Fold change (TCF targets; [5]): -10
- ASCL2 Fold change, Ls174T cells (TCF targets; [6]): -9.1
- AXIN2 Fold change, Ls174T cells (TCF targets; [6]): -4.1
- LGR5 Fold change, Ls174T cells (TCF targets; [6]): -15.1
- cMYC Fold change, Ls174T cells (TCF targets; [6]): -10.2
- share of the 106-gene set of TCF targets repressed by 1.5-fold or more (TCF targets; microarray, Ls174T, 5 µM): 70%
- downregulation of ASCL2 (TCF targets; [7]): 9 fold
- downregulation of AXIN2 (TCF targets; [7]): 4 fold
- downregulation of LGR5 (TCF targets; [7]): 15 fold
- BMP4 expression (BMP/TGFβ; 5µM batch 3, 2h post-treatment): 0.4
- ID2 expression (BMP/TGFβ; 5µM batch 3, 2h post-treatment): 0.7
- SMAD6 expression (BMP/TGFβ; 5µM batch 3, 2h post-treatment): 1.3
- BMP4 expression (BMP/TGFβ; 5µM batch 3, 4h post-treatment): 0.1
- ID2 expression (BMP/TGFβ; 5µM batch 3, 4h post-treatment): 0.1
- SMAD6 expression (BMP/TGFβ; 5µM batch 3, 4h post-treatment): 0.4
- AXIN2 expression (WNT-TCF targets; 1.25µM): 0.8
- LGR5 expression (WNT-TCF targets; 1.25µM): 0.8
- AXIN2 expression (WNT-TCF targets; 2.5µM): 0.9
- LGR5 expression (WNT-TCF targets; 2.5µM): 0.7
- AXIN2 expression (WNT-TCF targets; 5µM): 0.8
- LGR5 expression (WNT-TCF targets; 5µM): 0.3
- AXIN2 expression (WNT-TCF targets; 10µM): 0.4
- LGR5 expression (WNT-TCF targets; 10µM): 0.1
- IC50 (Ls174T cells [1]): < 1250 nM
- concentration from which activated Caspase3 labeled cells increase (Ls174T cells [2]): 2.5 µM
- EED expression (Epigenetic regulators [3]): 0.8
- SETD6 expression (Epigenetic regulators [3]): 0.9
- SMARCAL1 expression (Epigenetic regulators [3]): 0.5
- TAF5L expression (Epigenetic regulators [3]): 1.1
- TBL1XR1 expression (Epigenetic regulators [3]): 0.6
- ZMYND8 expression (Epigenetic regulators [3]): 0.4
- IC50 (DLD1 cells): < 1250 nM
- EED expression (Epigenetic regulators [4]): 0.2
- SETD6 expression (Epigenetic regulators [4]): 0.3
- SMARCAL1 expression (Epigenetic regulators [4]): 0.2
- TAF5L expression (Epigenetic regulators [4]): 0.5
- TBL1XR1 expression (Epigenetic regulators [4]): 0.2
- ZMYND8 expression (Epigenetic regulators [4]): 0.1
